From patent US10640545B2 (THE GOVERNORS OF THE UNIVERSITY OF ALBERTA, priority 2017, dated 2020)
Where a SMILES comes first, the peptide text is derived from it. [ ]: non-standard residue; d: D form. Phe(4-Br) = N[C@@H](Cc1ccc(Br)cc1)C(=O)O; NMeL = CN[C@@H](CC(C)C)C(=O)O; Nle = CCCC[C@H](N)C(=O)O; Aib = CC(C)(N)C(=O)O

Assays:
NEP [1] = target: T1, NEP (Homo sapiens, UniProt P08473); assay: Neprilysin degradation assay (LC-MS, quantitative); details: 37° C.
[2] = target: Human plasma kallikrein KLKB1 (Homo sapiens, UniProt P03952); assay: Plasma kallikrein KLKB1 qualitative cleavage assay (MALDI-TOF); details: KLKB1, 37° C., first degradation products by MALDI-TOF
Human plasma kallikrein KLKB1, sequence (P03952 20-638): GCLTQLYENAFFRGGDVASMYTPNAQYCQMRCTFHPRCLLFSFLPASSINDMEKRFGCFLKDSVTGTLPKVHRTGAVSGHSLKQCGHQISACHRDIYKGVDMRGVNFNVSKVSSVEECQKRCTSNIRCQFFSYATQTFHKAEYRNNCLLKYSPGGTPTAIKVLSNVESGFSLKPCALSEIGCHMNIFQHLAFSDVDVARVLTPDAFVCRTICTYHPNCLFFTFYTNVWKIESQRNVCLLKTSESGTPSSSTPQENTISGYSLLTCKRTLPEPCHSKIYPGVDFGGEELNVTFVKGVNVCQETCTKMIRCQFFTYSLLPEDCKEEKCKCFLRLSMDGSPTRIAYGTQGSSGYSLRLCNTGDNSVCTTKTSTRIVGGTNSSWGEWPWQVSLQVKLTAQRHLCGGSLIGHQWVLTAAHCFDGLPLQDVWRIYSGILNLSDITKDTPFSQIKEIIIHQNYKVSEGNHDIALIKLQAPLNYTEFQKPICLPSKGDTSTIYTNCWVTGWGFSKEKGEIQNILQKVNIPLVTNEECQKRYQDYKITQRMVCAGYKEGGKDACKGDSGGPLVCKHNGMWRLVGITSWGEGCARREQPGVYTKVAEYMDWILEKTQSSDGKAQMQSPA

NEP [3] = target: T1, NEP; assay: Kinetic parameters for NEP cleavage; assay type: biochemical; design: purchased Sino Biological; details: enzyme NEP
neprilysin (NEP) = neprilysin (NEP) (Homo sapiens, UniProt P08473); assay: in vitro; details: human, pH 7.5
neprilysin (NEP), sequence (P08473 whole entry): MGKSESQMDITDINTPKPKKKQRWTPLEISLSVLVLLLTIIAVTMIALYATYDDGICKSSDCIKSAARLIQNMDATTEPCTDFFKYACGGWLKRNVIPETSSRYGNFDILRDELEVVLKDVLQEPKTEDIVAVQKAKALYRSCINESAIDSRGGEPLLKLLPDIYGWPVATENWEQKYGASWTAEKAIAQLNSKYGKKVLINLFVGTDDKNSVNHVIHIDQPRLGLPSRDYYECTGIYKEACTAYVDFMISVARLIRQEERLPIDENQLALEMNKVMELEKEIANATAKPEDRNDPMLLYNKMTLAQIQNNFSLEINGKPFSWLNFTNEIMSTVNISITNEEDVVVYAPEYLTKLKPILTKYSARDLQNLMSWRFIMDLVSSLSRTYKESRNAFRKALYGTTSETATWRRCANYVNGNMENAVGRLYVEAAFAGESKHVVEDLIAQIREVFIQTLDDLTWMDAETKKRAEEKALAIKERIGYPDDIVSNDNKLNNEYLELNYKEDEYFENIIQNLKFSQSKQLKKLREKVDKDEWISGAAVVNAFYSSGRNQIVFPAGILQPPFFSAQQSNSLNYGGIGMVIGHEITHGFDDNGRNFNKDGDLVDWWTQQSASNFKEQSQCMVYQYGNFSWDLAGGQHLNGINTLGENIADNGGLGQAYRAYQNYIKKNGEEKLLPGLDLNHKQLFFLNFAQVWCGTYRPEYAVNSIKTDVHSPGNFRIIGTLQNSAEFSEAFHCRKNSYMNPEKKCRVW

[4] = target: T2, KLKB1 (plasma kallikrein) (Homo sapiens, UniProt P03952); assay: In vitro KLKB1 stability (half-life); assay type: in vitro ADME; details: human
T2 construct: purchased Novoprotein
T2 sequence (P03952 20-638): as the sequence (P03952 20-638) above

T1 sequence (P08473 whole entry): as the sequence (P08473 whole entry) above

In the case of CSCC[C@H](NC(=O)[C@@H]1CCCN1C(=O)CNC(=O)[C@H](CCCCN)NC(=O)[C@H](Cc1cnc[nH]1)NC(=O)[C@H](CO)NC(=O)[C@H](CC(C)C)NC(=O)[C@H](CCCNC(=N)N)NC(=O)[C@@H]1CCCN1C(=O)[C@H](CCCNC(=N)N)NC(=O)[C@H](CCC(N)=O)NC(=O)[C@H](CCCNC(=N)N)NC(=O)[C@H](CCCNC(=N)N)NC(=O)[C@H](Cc1ccccc1)NC(=O)[C@@H](N)CCCCN)C(=O)N1CCC[C@H]1C(=O)N[C@@H](Cc1ccccc1)C(=O)O [Peptide 2, reference compound], the “t1/2 (rhNEP, h)” value (NEP [1]; rhNEP 3.1 nM) is reported as 0.4 h, the “in vitro NEP proteolytic stability (in words)” value (NEP [1]; rhNEP, up to 72 h, LC-MS) is reported as “degraded by NEP at rates comparable to those previously reported” and the “Degradation Onset Timepoint with KLKB1” value [2] is reported as under 30 min. The Km (NEP [3]) was 190 ± 40 µM and the “kcat” value (NEP [3]) was 3.4 ± 0.3 s⁻¹.

With CCCC[C@H](NC(=O)[C@@H]1CCCN1C(=O)CNC(=O)[C@H](CCCCN)NC(=O)[C@H](Cc1c[nH]cn1)NC(=O)[C@H](CO)NC(=O)[C@H](CC(C)C)N(C)C(=O)[C@H](CCCNC(=N)N)NC(=O)[C@@H]1CCCN1C(=O)[C@H](CCCNC(=N)N)NC(=O)[C@H](CCC(N)=O)NC(=O)[C@H](CCCNC(=N)N)NC(=O)[C@H](CCCNC(=N)N)NC(=O)[C@H](Cc1ccccc1)NC(=O)[C@@H](N)CCCCN)C(=O)NC(C)(C)C(=O)N[C@@H](Cc1ccc(Br)cc1)C(=O)O [Peptide 11] (H-KFRRQRPR[NMeL]SHKGP[Nle][Aib][Phe(4-Br)]-OH; C-terminus assumed) the half-life (neprilysin (NEP)) was over 1800 min and the half-life [4] was 54 min.
